These results are taken from ChEMBL document CHEMBL3769343, “Spiromastilactones: A new class of influenza virus inhibitors from deep-sea fungus” (Eur J Med Chem, 2016).

Data set [1] concerns Influenza A virus. Kind of data set: Antiviral activity against Influenza A virus A/WSN/1933 (H1N1) infected in MDCK cells assessed as protection against virus induced cytopathic effect after 40 hrs by Celltiter-Glo assay. The class given is functional, organism-based. For orientation: Damage to the host cells serves as the signal in cytopathic effect assays.
Data set [2] in a line: Cytotoxicity against MDCK cells after 40 hrs by Celltiter-Glo assay. In kind it is cell-based, Canis lupus familiaris. The settings on record: dog. (In general: ATP-based viability assays read luminescence as a measure of living cells.)
Data set [3] deals with Influenza A virus (A/WSN/1933(H1N1)). Put plainly: Binding affinity to Influenza A virus A/WSN/33 (H1N1) HA1 protein by surface plasmon resonance assay. Background: In SPR one partner is held on a chip, and binding of the other changes the refractive index at the surface.
Data set [4] has the same test system. Put plainly: Binding affinity to Influenza A virus A/WSN/33 (H1N1) HA1 protein assessed as decrease in protein affinity to sialic acid receptor at 10 uM by surface plasmon resonance assay.
Data set [5] is described as follows: Binding affinity to Influenza A virus A/WSN/33 (H1N1) HA1 protein assessed as decrease in protein affinity to sialic acid receptor by measuring dissociation constant by surface plasmon resonance assay (reference value: 0.001473/Ms). Details: species or system Influenza A virus (A/WSN/1933(H1N1)).
The subject of data set [6] is Influenza A virus (A/WSN/1933(H1N1)). Kind of data set: Binding affinity to Influenza A virus A/WSN/33 (H1N1) HA1 protein assessed as decrease in protein affinity to sialic acid receptor at 5 uM by surface plasmon resonance assay.
Data set [7] shares this test system. Kind of data set: Binding affinity to Influenza A virus A/WSN/33 (H1N1) HA1 protein assessed as decrease in protein affinity to sialic acid receptor at 1.25 uM by surface plasmon resonance assay.
For data set [8] the test system is unchanged. Put plainly: Binding affinity to Influenza A virus A/WSN/33 (H1N1) HA1 protein assessed as decrease in protein affinity to sialic acid receptor by measuring association constant by surface plasmon resonance assay (reference value: 20810/s).
The nature of data set [9]: Inhibition of Influenza A virus A/WSN/33 (H1N1) HA1 protein by surface plasmon resonance assay. Also on record: species or system Influenza A virus (A/WSN/1933(H1N1)).
Data set [10] deals with Influenza A virus (A/WSN/1933(H1N1)). Put plainly: Binding affinity to Influenza A virus A/WSN/33 (H1N1) HA1 protein assessed as decrease in protein affinity to sialic acid receptor at 2.5 uM by surface plasmon resonance assay.
For data set [11] the test system is unchanged. Kind of data set: Binding affinity to Influenza A virus A/WSN/33 (H1N1) HA1 protein assessed as decrease in protein affinity to sialic acid receptor at 0.625 uM by surface plasmon resonance assay.
The test system is the same in data set [12]. Kind of data set: Binding affinity to Influenza A virus A/WSN/33 (H1N1) HA1 protein assessed as decrease in protein affinity to sialic acid receptor at 20 uM by surface plasmon resonance assay.
A short description of data set [13]: Binding affinity to Influenza A virus A/WSN/33 (H1N1) HA1 protein assessed as decrease in protein affinity to sialic acid receptor by surface plasmon resonance assay (reference value: 70 nM). Also on record: species or system Influenza A virus (A/WSN/1933(H1N1)).
The test system of data set [14] is Influenza A virus (A/WSN/1933(H1N1)). Kind of data set: Binding affinity to Influenza A virus A/WSN/33 (H1N1) HA1 protein assessed as decrease in protein affinity to sialic acid receptor at 20 uM by surface plasmon resonance assay relative to control.
Data set [15] deals with Influenza B virus. Put plainly: Antiviral activity against influenza B virus B/SZ/155 infected in dog MDCK cells assessed as inhibition of virus induced cytopathic effect after 40 hrs by Cell-Titer-Glo assay. The class given is functional, organism-based. The following applies: B/SZ/155, MDCK.

The term IC50 denotes the concentration that inhibits the measured activity by half. Broadly, the CC50 is the concentration that lowers cell viability or growth by half. For `CCCc1cc(O)cc(O)c1Oc1c(Cl)c(O)c(Cl)c2c1C(=O)O[C@@H]2CC`, the half-inhibitory concentration (IC50) in data set [1] was more than 100 µM. Further, the CC50 at 40 h in data set [2] is more than 100 µM.
Take `CCCc1cc(O)cc(OC)c1Oc1c(Cl)c(O)c(Cl)c2c1C(=O)O[C@@H]2CC`: the Ka worked out at 0.46 ×10⁴ /Ms in data set [3] and 3560 s⁻¹ in data set [8]. Moreover, the Activity in data set [4] was 55.1 RU; in data set [6], 27.1 RU; in data set [7], 7 RU; in [10] it was 13 RU; in data set [11], 3.4 RU; in data set [12], 114 RU. Further, the results for the Kd in data set [5] and in [13] were 0.0007964 M⁻¹ s⁻¹ and 0.224 µM, respectively. The IC50 in data set [9] and in [1] was 74.9 µM in each case. In data set [2], this compound yielded a CC50 at 40 h of more than 100 µM.
Turning to `CCCc1c(Cl)c(O)cc(O)c1Oc1c(Cl)c(O)c(Cl)c2c1C(=O)O[C@@H]2CC`, in [1], the IC50 was determined as 27.6 µM. Besides, the CC50 at 40 h in [2] was more than 50 µM.
On to `COc1cc(/C=C/C(=O)CC(=O)/C=C/c2ccc(O)c(OC)c2)ccc1O` [CURCUMIN], for which the Activity amounted to 36.4 RU in [4]; 16.1 RU in data set [6]; 2.7 RU in data set [7]; 6.8 RU in data set [10]; 0.8 RU in [11]; 78.8 RU in [12]. The Kd in data set [5] is 0.001351 M⁻¹ s⁻¹; in [13] it was 0.507 µM. The Ka in [8] is 2660 s⁻¹. Moreover, the fold change (FC) in data set [14] was 8.
Take `CCCc1cc(O)cc(O)c1C(=O)O`: the IC50 in [1] is more than 100 µM. In [2], this compound displayed a CC50 at 40 h of more than 100 µM.
As for `CCCc1c(Cl)c(OC)c(Cl)c(O)c1Oc1c(Cl)c(O)c(Cl)c2c1C(=O)O[C@@H]2CC`, the half-inhibitory concentration (IC50) in data set [1] was more than 50 µM. This compound gave a CC50 at 40 h in [2] of more than 50 µM.
Take `CC[C@H]1OC(=O)c2c(O)c(Cl)c(O)c(Cl)c21`: the IC50 in [1] was more than 100 µM. In data set [2], this compound showed a CC50 at 40 h of more than 100 µM.
Take `CCCc1c(Cl)c(O)c(Cl)c(OC)c1Oc1c(Cl)c(O)c(Cl)c2c1C(=O)O[C@@H]2CC`: the IC50 in data set [1] was 22.6 µM. This compound also yielded a CC50 at 40 h in data set [2] of more than 100 µM.
Take `CCCc1cc(O)c(Cl)c(O)c1Oc1c(Cl)c(O)c(Cl)c2c1C(=O)O[C@@H]2CC`: the Ka in data set [3] turned out to be 0.67 ×10⁴ /Ms. For the same compound, the IC50 in data set [9] and in data set [1] was 30.7 µM in each case. In data set [2], this compound displayed a CC50 at 40 h of more than 100 µM.
The term EC50 denotes the concentration that produces a half-maximal response. As for `CCOC(=O)C1=C[C@@H](OC(CC)CC)[C@H](NC(C)=O)[C@@H](N)C1` [OSELTAMIVIR], in data set [1], the IC50 amounted to 10 µM. Also, in data set [15], the EC50 is more than 83.2 µM. Moreover, the CC50 at 40 h in data set [2] is more than 100 µM.
